Consider 74 compounds from ChEMBL document CHEMBL3507680, “University of Dundee, Gates Library screen for HepG2 cell viability”.

This data set in a line: Human HepG2 cell viability assay in 384 well format. The settings on record: HepG2 cells, read-out: Inhibition. Details: dose 125 nL, time 70.5 hour; concentration not given beside the values. The format is toxicity, cell-based.
Consider `CC(CNC(=O)c1cccc(-n2cccn2)c1)Cn1ccnc1` (centres undefined), for which the cytotoxicity at 70.5 h turned out to be 2.48%.

Regarding `CN(C)CCOc1ccccc1N1CCN(C(=O)C(C)(C)C#N)CC1`, the cytotoxicity at 70.5 h is -0.199%. The same measure for `CN(C)c1ccc(CNC(=O)Nc2ccc(S(=O)(=O)C(F)F)cc2)cc1`: -0.147%; for `COc1ccccc1N1CCN(C(=O)c2ccoc2)CC1`: -6.02%. The result for `Cc1cccc(NCC(=O)NC2(C#N)CCCC2)c1C(=O)N1CCCC1` reads 2.28%.

Regarding `O=c1oc(-c2cccs2)nn1CC1(O)CCCCC1`, the cytotoxicity at 70.5 h is -1.35%.

As to `CS(=O)(=O)c1ccc(NC(=O)NCc2ccc(F)cc2)cn1`, the cytotoxicity at 70.5 h was -0.885%. On to `COc1ccc(C(=O)Nc2nncs2)cn1`, for which the cytotoxicity at 70.5 h worked out at 27.2%. The same measure for `COc1cc(NCC(=O)NC(C)(C#N)C(C)C)cc(OC)c1OC` (centres undefined): -0.783%.

Turning to `COc1ncccc1NC(=O)c1[nH]nc(C(C)C)c1Br`, the cytotoxicity at 70.5 h was -8.6%.

Consider `Cn1ccnc1CN1CCCN(C(=O)C2(C#N)CCCCC2)CC1`, for which the cytotoxicity at 70.5 h is 1.4%. The result for `CN(C)CCOc1ccccc1N1CCN(C(=O)c2ccoc2)CC1` reads 2.2%. The same measure for `CC(NC(=O)N1CCS(=O)(=O)CC1)c1ccc(F)cc1Cl` (centres undefined): -1.2%; for `CC(CNC(=O)c1cccc(-n2cccn2)n1)Cn1ccnc1` (centres undefined): -2.98%. For the compound `CC(C)c1cc(C(=O)N(c2ccc(F)cn2)C2CCOCC2)nn1C`, the cytotoxicity at 70.5 h turned out to be 3.21%. The result for `O=C(c1ccncc1F)N1CCOC(c2cccc(O)c2)C1` (centres undefined) reads 2.22%; that for `COc1ccc(-c2nc(CSC3CCCCNC3=O)co2)cc1` (centres undefined), -3.03%. As for `CCn1ccnc1CN1CCCN(C(=O)C2(C#N)CCCCC2)CC1`, the cytotoxicity at 70.5 h is -3.94%.

Turning to `O=C(Cc1cccs1)N1CCOC(c2cccc(O)c2)C1` (centres undefined), the cytotoxicity at 70.5 h came out at 0.631%.

Take `COc1ccc(C)cc1C1(CNc2cn[nH]c(=O)c2Cl)CCOCC1`: the cytotoxicity at 70.5 h is -5.9%.

As for `Cc1ccc(O)c(C(=O)NCCCS(=O)(=O)Cc2ccccc2)c1`, the cytotoxicity at 70.5 h is -11.4%.

Take `NC(=O)CCOc1ccc(NC(=O)c2ccccc2OC(F)F)cc1`: the cytotoxicity at 70.5 h turned out to be 3.32%. Regarding `CCNC(=O)Nc1cccc(F)c1C(=O)NC1CCCC1`, the cytotoxicity at 70.5 h was -6.92%. On to `O=C(CCc1cc(Br)cs1)NCCCn1ccnc1`, for which the cytotoxicity at 70.5 h turned out to be 5.85%. Turning to `CCn1nnnc1-c1cccc(NC(N)=O)c1`, the cytotoxicity at 70.5 h was -5.79%.

In the case of `CC1CS(=O)(=O)CCN1Cc1ccccc1OCC(F)(F)F` (centres undefined), the cytotoxicity at 70.5 h is -6.75%. The result for `O=c1[nH]c(=O)n(CC(O)c2ccccc2Cl)cc1Cl` (centres undefined) reads -5.98%; that for `CC(C)NC(=O)CCNC(=O)CCc1cc(Br)cs1`, -6.47%; that for `CC(C)(C)c1ccc2c(c1)CCN2C(=O)c1nc(=O)[nH][nH]1`, 0.34%.

`Cc1cncc(NCc2ccccc2N2CCOCC2)c1`: the cytotoxicity at 70.5 h amounted to 3.08%. The same measure for `O=S(=O)(c1ccccc1)N1CCCC(Cn2cncn2)C1` (centres undefined): -4.76%; for `CCC(C)C(=O)NCc1ccn(-c2ccc(F)cc2)n1` (centres undefined): 8.14%. The result for `O=C(Cc1ccc(F)cc1)NCc1ccc(C(=O)O)o1` reads -2.52%.

As for `O=C(C1CCOc2ccccc21)N1CCOc2ccc(F)cc21` (centres undefined), the cytotoxicity at 70.5 h was -9.88%. The same measure for `CC(C)n1nc2c(cc1=O)CN(CC1CCCCO1)CC2` (centres undefined): -5.1%. The same measure for `CCC(C(=O)NCc1ccn(-c2ccc(F)cc2)n1)N1CCCC1=O` (centres undefined): 5.43%; for `CCN(Cc1ccoc1)C(=O)c1ccncc1O`: -9.48%; for `COc1ccc(NC(=O)c2cccc(OC)c2OC)cc1`: -3.77%. `CN(CC(=O)NCC(F)(F)F)Cc1cccc2c1OCCO2`: the cytotoxicity at 70.5 h turned out to be 14.8%. For the compound `CC(OCC1CC1)C(=O)Nc1nccn1Cc1ccccc1` (centres undefined), the cytotoxicity at 70.5 h is -14.6%. The same measure for `CN(Cc1cc(Br)c2c(c1)OCO2)Cc1cscn1`: -14.1%; for `COc1cc(F)ccc1NC(=O)NC(C)C(=O)NC(C)(C)C` (centres undefined): -4.93%; for `Cc1ccc(C)c(CC(=O)NC2CCS(=O)(=O)CC2)c1`: -10.2%. For `Cc1noc(C)c1C(C)NC(=O)N1CCCN(C(=O)c2ccsc2)CC1` (centres undefined), the cytotoxicity at 70.5 h was -13.8%. With `CC(C)Nc1ncccc1C(=O)NC1CC(=O)N(CC(F)(F)F)C1` (centres undefined), the cytotoxicity at 70.5 h is -2.71%.

`CCCNC(=O)CCNC(=O)N1CCC(=Cc2ccccc2)CC1`: the cytotoxicity at 70.5 h is -4.61%. Consider `NC(=O)C1CCCN1CCCc1ccc(C(F)(F)F)cc1` (centres undefined), for which the cytotoxicity at 70.5 h was -5.39%. The same measure for `CC(NC(=O)Nc1cccnc1N1CCOCC1)c1ccccn1` (centres undefined): -8.36%; for `CNC(=O)N1CCC(=Cc2ccccc2)CC1`: -12%. For the compound `NC(=O)C1CCN(CCCc2ccc(C(F)(F)F)cc2)CC1`, the cytotoxicity at 70.5 h is 3.34%. The result for `Cc1ccc(CNC(=O)NC2CCC(O)CC2)c(N2CCCC2)c1` (centres undefined) reads -10.5%; that for `Cc1ccc(CNC(=O)NCC(=O)NC(C)(C)C)c(N2CCCC2)c1`, -16.8%; that for `N#CC1(NC(=O)c2nccc3ccccc23)CCSCC1`, -9.79%. As to `CSC(C)C(=O)NS(=O)(=O)CCc1ccccc1` (centres undefined), the cytotoxicity at 70.5 h was -2.58%. The result for `CC(C)CC(CCO)CNC(=O)N1CCOC2(CCCC2)C1` (centres undefined) reads -1.95%; that for `CCc1noc(C(C)N2CCN(CCc3ccncc3)CC2)n1` (centres undefined), -5.36%. The same measure for `CCn1ccnc1CN1CCN(C(C)C(=O)NCc2ccco2)CC1` (centres undefined): 16.6%; for `CC(C)n1cnnc1CNC(=O)c1cnc2ccccc2n1`: -3.77%. The same measure for `OC1(CN2CCOC(Cn3cncn3)C2)CCCCC1` (centres undefined): 2.37%; for `O=C1CCN(C(=O)NCc2cccc(Oc3ccccc3)c2)CCN1`: -6.34%; for `CC(C)(C)C1CCC(O)(CNC(=O)CCS(C)(=O)=O)CC1` (centres undefined): -4.23%. Turning to `O=C1CCN(C(=O)NCc2ccccc2Oc2ccccc2)CCN1`, the cytotoxicity at 70.5 h amounted to 2.87%. The result for `CC(=O)NCCC(=O)NC(C)c1sc(-c2ccccc2F)nc1C` (centres undefined) reads -5.17%.

Consider `Cn1c(=O)n(C)c2cc(NS(=O)(=O)Cc3cccc(F)c3)ccc21`, for which the cytotoxicity at 70.5 h was -6.9%. The same measure for `N#Cc1ccc(CN2CCN(c3cncc(Cl)n3)CC2=O)cc1`: -4.86%; for `CCOc1ccc(Cl)c(C(=O)N2CCCC(c3cc(C)[nH]n3)C2)n1` (centres undefined): -2.21%; for `O=C(c1sccc1-n1cnnn1)N1CCC2(CCCCC2)CC1`: 11.8%. The same measure for `CC(Cn1cncn1)NC(=O)N1CC2(CCCC2)c2ccccc21` (centres undefined): -1.39%.

For `CNC(=O)C1CCCN1C(=O)NCCCc1cccc(F)c1` (centres undefined), the cytotoxicity at 70.5 h amounted to 1.01%. The same measure for `Cc1cc(C(=O)Nc2ccc(-c3nnc(N(C)C)o3)cc2)oc1C`: 14.7%. The same measure for `O=C(NCc1ccc(Br)cc1)C1(O)CCSCC1`: -1.14%.

Regarding `O=C(NCc1cc(F)cc(Br)c1)C1(O)CCSCC1`, the cytotoxicity at 70.5 h was -4.03%. The result for `O=C(NCc1ccc(Br)cc1F)C1(O)CCSCC1` reads -2.81%.

With `CCOc1ccc(Cl)c(C(=O)N2CCCC(N3CCCC3)C2)n1` (centres undefined), the cytotoxicity at 70.5 h was -2.98%.
